Source: paper PMC3804415 (Bioorganic & medicinal chemistry, 2013)

Biological target: T1, human QR2 (Homo sapiens, UniProt P16083)
T1 sequence (P16083 1-231): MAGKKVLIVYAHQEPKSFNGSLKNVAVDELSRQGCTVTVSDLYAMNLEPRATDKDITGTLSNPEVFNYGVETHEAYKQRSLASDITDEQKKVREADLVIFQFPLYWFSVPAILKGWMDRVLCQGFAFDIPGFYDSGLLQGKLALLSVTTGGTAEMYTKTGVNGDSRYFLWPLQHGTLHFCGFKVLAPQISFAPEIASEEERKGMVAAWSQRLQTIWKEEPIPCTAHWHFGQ
Test: Steady-state kinetic assay of QR2 inhibition
Type: biochemical
Conditions: for inhibition at 100 µM: read-out: average percent inhibition of QR2; for average percent inhibition of QR2: at 100 μM inhibitor

inhibition at 100 µM [%]	average percent inhibition of QR2	Structure (SMILES)
≤ 20		CC(C)Oc1cc(/C=C(\C#N)c2ccc(O)cc2)cc(OC(C)C)c1 [Analogue 4a, (Z)-3-(3,5-diisopropoxyphenyl)-2-(4-hydroxyphenyl)acrylonitrile]
≤ 20		COc1ccc(/C(C#N)=C/c2cc(OC(C)C)cc(OC(C)C)c2)cc1 [Analogue 4c, (Z)-3-(3,5-diisopropoxyphenyl)-2-(4-methoxyphenyl)acrylonitrile]
	eliminates inhibition of QR2	CN(C)c1ccc(NC(=O)c2ccc(O)cc2)cc1 [Analogue 8f, N-(4-(dimethylamino)phenyl)-4-hydroxybenzamide]
	eliminates inhibition of QR2	CN(C)c1ccc(C(=O)Nc2cc(O)cc(O)c2)cc1 [Analogue 8k, N-(3,5-dihydroxyphenyl)-4-(dimethylamino)benzamide]
	no inhibition of QR2	COc1cc(OC)cc(C(=O)Nc2ccc3ccccc3c2)c1 [Analogue 8p, 3,5-dimethoxy-N-(naphthalen-2-yl)benzamide]
